Assay results as given in patent US4399286A, “Antiarrhythmic phenethylpiperidine compounds” (Mead Johnson & Company, priority 1981, dated 1983).

Assays:
rabbit atrium = test: in vitro rabbit atrium test, steady state refractory period; conditions: rabbit left atrium, Chenoweth's solution, 30° C., stimulated at 30/minute, five minute interval
Description: 3. […] In this test, the left atrium is placed in Chenoweth's solution warmed to 30° C. and irrigated with 95% oxygen:5% carbon dioxide. The lower end of the atrium is attached to a small hook fixed in the bath and the upper end is connected to a transducer to record contractile activity. The atrium is electrically stimulated at a basic rate of 30/minute by employing square wave pulses of 10 millisecond duration at 1.2 to 1.5 times threshold voltage. A test compound is introduced into the bath and the test repeated after a five minute interval. A dose-response relationship is obtained with additional doses of the test compound. […] This value is designated the EC50.

[1] = test system: chloroform-induced arrhythmia; test: inhibition of chloroform-induced arrhythmia in the mouse (J. W. Lawson method); format: in vivo; conditions: ip, intraperitoneal administration, read-out: ED50, prevention of chloroform-induced arrhythmia
Source text: 2. In the mouse, another in vivo test involves the inhibition of chloroform-induced arrhythmia according to the method of J. W. Lawson, Journal of Pharmacology and Experimental Therapeutics, 160, 22 (1968).

| Structure (SMILES) | EC50 (effective concentration which reduces to 50% the maximal increase in the steady state refractory period of the atrium) (rabbit atrium) [µg/mL] | ED50 [1] [mg/kg] |
| --- | --- | --- |
| COc1ccc(C(=N)Nc2ccccc2CCC2CCCCN2C)cc1 (stereo not drawn) [Example 15, N-[2-[2-(1-Methyl-2-piperidinyl)ethyl]phenyl]-p-anisamidine] | 10 | – |
| COc1ccc(NC(=O)Nc2ccccc2CCC2CCCCN2C)cc1 (stereo not drawn) [Example 2, 4'-Methoxy-2-[2-(1-methyl-2-piperidinyl)ethyl]carbanilide] | 29 | 46 |
| CN1CCCCC1CCc1ccccc1NC(=S)Nc1ccccc1 (stereo not drawn) [Example 9, 2-[2-(1-Methyl-2-piperidinyl)ethyl]thiocarbanilide] | 5.9 | – |
| CN1CCCCC1CCc1ccccc1NC(=O)Nc1ccccc1 (stereo not drawn) [Example 1, 2-[2-(1-Methyl-2-piperidinyl)ethyl]carbanilide] | 1.5 | 23 |
